Experimental data published in patent publication US12319652B2, “Salts and solid forms of (R)-1-(5-methoxy-1H-indol-1-yl)-N,N-dimethylpropan-2-amine” (priority 2021, dated 2025).

Assays:
[1] = format: physicochemical; conditions: 40° C./75% RH, 10-day time point
Protocol: Equilibrium Humidity Evaluation (40° C./75% RH for 10 Days)
100 mg portions of compound 1 salts (for inputs see table below) were placed in the relevant open vials. The powders were finely divided and distributed evenly over the base of the vial, such that equal material coverage across the panel was observed. These samples were then maintained 40°C. under 75% RH. The samples were sub-sampled at intervals of 5 and 10 days and analysed by ^1H NMR, HPLC, XRPD, DSC, TGA and PLM, for evidence of phase change or chemical degradation (FIG. 269-297).

[2] = Solubility determinations in SIF buffers (FaSSIF, FeSSIF, FaSSGF); format: physicochemical
Protocol: At this stage ca. 1 g of each front-runner salt form was prepared. Salt forms that offered significant solubility and stability advantages over the non-ionized API were prioritized. […] Scale Up
The solubility of the salts below was determined in FaSSIF, FeSSIF and FaSSGF by reference to the calibration curve of amorphous compound 1.
Separate portions of compound 1 were weighed out into aluminum boats and were charged to the relevant volumetric flasks. Solutions were made to volume with 1 to 1 (v/v) acetonitrile/purified water to give calibrants of known API concentrations and analyzed by HPLC, suitable to determine the concentration of compound 1 free base in the SIF buffer solubility study.
Each sample (150 mg) was suspended in the relevant SIF buffer (5.0 ml), to give a concentration of 30 mg/ml and maintain at 37° C. for 24 h. The pH was adjusted using 1 M HCl or 1 M NaOH, to ensure that the suspension remains in range.
Sample (1 ml) of the well-stirred representative suspensions was obtained at 1 h, 3 h, 6 h and 24 h and the pH was recorded. The pH of the bulk suspension was re-adjusted when necessary. The obtained sample from each vial was centrifuged, and the supernatant was analysed by HPLC (note, the analyte was diluted, when outside of the calibration range); XRPD analysis was performed on the wet sample pellet for evidence of form change, as well as on the oven-dried pellet (undervacuum at 40° C.).

[3] = Dynamic vapor sorption (DVS); format: physicochemical; conditions: for DVS isotherm type / hygroscopicity: 0 to 90 to 0% RH; for DVS desorption behaviour (hysteresis): during desorption
Protocol: There are two main methods to use, one is by time where the equilibration is given by a fixed time, i.e., 1 hour per step and is appropriate for an unknown phase. The second, is by mass per time unit (dm/dt) of 0.002%/min; that is when the difference in weight is less than 0.002%, the instrument moves onto the next step. For unknown hygroscopicity, the method by time is indicated because it gives an idea of water affinity without wasting much time. Ideally the analyses are repeated using the mass equilibration method to confirm. By experience for hygroscopic samples, the analysis can continue for days. For non-hygroscopic samples the difference between the two methods may not be significant.
Consequently, amorphous batch 1 was analyzed by the fixed time method and once compound 1 fumarate crystalline polymorphic Form A was generated the analyses was repeated as mass per unit time equilibrated @dm/dt ([…]) and is given below (refer to FIG. 12).
(§1) The moisture sorption properties of the feed API were analysed by DVS Intrinsic instrument (Surface Measurement System). Approximately 20 to 50 mg of API was weighed onto an aluminium pan and loaded into the instrument equilibrated at 25° C. The sample was equilibrated under a dry atmosphere (0% relative humidity) for 60 minutes, before increasing the humidity from 0% to 30% at 5%4 step increment and from 30% to 90% at 10% step increment. A desorption cycle was also applied from 90% to 30% (10% step decrement) and from 30% to 0% (5% step decrement). A rate of change in mass per time unit (dm/dt) of 0.002%/min was set as the equilibrium parameter. Kinetic and isotherm graphs were calculated.
Specimens were equilibrated at 0% RH for 60 min, prior to DVS analyses (stepped increment % RH up to 90% RH and stepped decrement % RH down to 0% RH.
as §1, with “5%” for “5%4”

COc1ccc2c(ccn2C[C@@H](C)N(C)C)c1.O=C(O)/C=C\C(=O)O [compound 1 maleate]
Change of purity profile / CP [1]: reduction in CP | Solubility in SIF buffers ([2]; FaSSIF, FeSSIF and FaSSGF, 37° C., 24 h, concentration tested 30 mg/ml): freely soluble | DVS isotherm uptake [3]: ca. 3.5 % w/w | DVS 0 to 90 to 0% RH (dm/dt <0.002%) ([3]; 0.0% RH, desorption): −0.07% | DVS 0 to 90 to 0% RH (dm/dt <0.002%) ([3]; 0.0% RH, sorption): DVS 0 to 90 to 0% RH (dm/dt <0.002%): 0.0 (0.00%), 5.0 | DVS isotherm type / hygroscopicity [3]: hygroscopic | DVS 0 to 90 to 0% RH (dm/dt <0.002%) ([3]; 5.0% RH, desorption): −0.03% | DVS 0 to 90 to 0% RH (dm/dt <0.002%) ([3]; 5.0% RH, sorption): 0.02% | DVS 0 to 90 to 0% RH (dm/dt <0.002%) ([3]; 10.0% RH, desorption): 0.03% | DVS 0 to 90 to 0% RH (dm/dt <0.002%) ([3]; 10.0% RH, sorption): 0.05% | DVS 0 to 90 to 0% RH (dm/dt <0.002%) ([3]; 15.0% RH, desorption): 0.09% | DVS 0 to 90 to 0% RH (dm/dt <0.002%) ([3]; 15.0% RH, sorption): 0.08% | DVS 0 to 90 to 0% RH (dm/dt <0.002%) ([3]; 20.0% RH, desorption): 0.15% | DVS 0 to 90 to 0% RH (dm/dt <0.002%) ([3]; 20.0% RH, sorption): 0.11% | DVS 0 to 90 to 0% RH (dm/dt <0.002%) ([3]; 25.0% RH, desorption): 0.22% | DVS 0 to 90 to 0% RH (dm/dt <0.002%) ([3]; 25.0% RH, sorption): 0.14% | DVS 0 to 90 to 0% RH (dm/dt <0.002%) ([3]; 30.0% RH, desorption): 0.30% | DVS 0 to 90 to 0% RH (dm/dt <0.002%) ([3]; 30.0% RH, sorption): 0.18% | DVS 0 to 90 to 0% RH (dm/dt <0.002%) ([3]; 40.0% RH, desorption): 0.48% | DVS 0 to 90 to 0% RH (dm/dt <0.002%) ([3]; 40.0% RH, sorption): 0.26% | DVS 0 to 90 to 0% RH (dm/dt <0.002%) ([3]; 50.0% RH, desorption): 0.70% | DVS 0 to 90 to 0% RH (dm/dt <0.002%) ([3]; 50.0% RH, sorption): 0.42% | DVS 0 to 90 to 0% RH (dm/dt <0.002%) ([3]; 60.0% RH, desorption): 1.00% | DVS 0 to 90 to 0% RH (dm/dt <0.002%) ([3]; 60.0% RH, sorption): 0.86% | DVS 0 to 90 to 0% RH (dm/dt <0.002%) ([3]; 70.0% RH, desorption): 1.40% | DVS 0 to 90 to 0% RH (dm/dt <0.002%) ([3]; 70.0% RH, sorption): 1.38% | DVS 0 to 90 to 0% RH (dm/dt <0.002%) ([3]; 80.0% RH, desorption): 2.03% | DVS 0 to 90 to 0% RH (dm/dt <0.002%) ([3]; 80.0% RH, sorption): 2.00% | DVS 0 to 90 to 0% RH (dm/dt <0.002%) ([3]; 90.0% RH, desorption): 3.44% | DVS 0 to 90 to 0% RH (dm/dt <0.002%) ([3]; 90.0% RH, sorption): 3.44% | DVS desorption behaviour (hysteresis) [3]: small hysteresis

COc1ccc2c(ccn2C[C@@H](C)N(C)C)c1.O=C(O)c1ccccc1 [compound 1 benzoate]
Change of purity profile / CP [1]: little changed | Disproportionation in FaSSGF ([2]; 1H NMR of isolated residue, non-ionised benzoic acid present): disproportionated | Observation upon pH adjustment from 4.17 to 1.63 ([2]; SIF buffer solubility study): solid was observed | DVS isotherm type / hygroscopicity [3]: hygroscopic | DVS 0 to 90 to 0% RH (dm/dt <0.002%) ([3]; 5.0% RH, desorption): -0.39% | DVS 0 to 90 to 0% RH (dm/dt <0.002%) ([3]; 5.0% RH, sorption): 0.02% | DVS 0 to 90 to 0% RH (dm/dt <0.002%) ([3]; 10.0% RH, desorption): −0.34% | DVS 0 to 90 to 0% RH (dm/dt <0.002%) ([3]; 10.0% RH, sorption): 0.04% | DVS 0 to 90 to 0% RH (dm/dt <0.002%) ([3]; 15.0% RH, desorption): -0.29% | DVS 0 to 90 to 0% RH (dm/dt <0.002%) ([3]; 15.0% RH, sorption): 0.06% | DVS 0 to 90 to 0% RH (dm/dt <0.002%) ([3]; 20.0% RH, desorption): −0.25% | DVS 0 to 90 to 0% RH (dm/dt <0.002%) ([3]; 20.0% RH, sorption): 0.10% | DVS 0 to 90 to 0% RH (dm/dt <0.002%) ([3]; 25.0% RH, desorption): −0.19% | DVS 0 to 90 to 0% RH (dm/dt <0.002%) ([3]; 25.0% RH, sorption): 0.10% | DVS 0 to 90 to 0% RH (dm/dt <0.002%) ([3]; 30.0% RH, desorption): -0.16% | DVS 0 to 90 to 0% RH (dm/dt <0.002%) ([3]; 30.0% RH, sorption): 0.13% | DVS 0 to 90 to 0% RH (dm/dt <0.002%) ([3]; 40.0% RH, desorption): −0.19% | DVS 0 to 90 to 0% RH (dm/dt <0.002%) ([3]; 40.0% RH, sorption): 0.19% | DVS 0 to 90 to 0% RH (dm/dt <0.002%) ([3]; 50.0% RH, desorption): 0.20% | DVS 0 to 90 to 0% RH (dm/dt <0.002%) ([3]; 50.0% RH, sorption): 0.30% | DVS 0 to 90 to 0% RH (dm/dt <0.002%) ([3]; 60.0% RH, desorption): 0.41% | DVS 0 to 90 to 0% RH (dm/dt <0.002%) ([3]; 60.0% RH, sorption): 0.42% | DVS weight gain at 70% RH ([3]; 70% RH (printed 70° RH in Example 8)): ca. 0.6 % w/w | DVS 0 to 90 to 0% RH (dm/dt <0.002%) ([3]; 70.0% RH, desorption): 0.61% | DVS 0 to 90 to 0% RH (dm/dt <0.002%) ([3]; 70.0% RH, sorption): 0.58% | DVS 0 to 90 to 0% RH (dm/dt <0.002%) ([3]; 80.0% RH, desorption): 0.92% | DVS 0 to 90 to 0% RH (dm/dt <0.002%) ([3]; 80.0% RH, sorption): 0.89% | DVS 0 to 90 to 0% RH (dm/dt <0.002%) ([3]; 90.0% RH, desorption): 1.52% | DVS 0 to 90 to 0% RH (dm/dt <0.002%) ([3]; 90.0% RH, sorption): 1.52% | DVS desorption behaviour (hysteresis) [3]: desorption profile was unusual and ended beneath unity
